For 21 compounds, IC50 results are on record in patent US9902725B2, “Heterocyclic derivatives as RORgamma modulators” (GENFIT, priority 2014, dated 2018).

The target of assay [1] is T1, RORγt ligand-binding domain (RORγt-LBD) (Homo sapiens, UniProt P51449).
T1 construct: 20 nM recombinantly expressed RORγ-LBD fused to GST
T1 sequence (P51449 269-508 limits assumed): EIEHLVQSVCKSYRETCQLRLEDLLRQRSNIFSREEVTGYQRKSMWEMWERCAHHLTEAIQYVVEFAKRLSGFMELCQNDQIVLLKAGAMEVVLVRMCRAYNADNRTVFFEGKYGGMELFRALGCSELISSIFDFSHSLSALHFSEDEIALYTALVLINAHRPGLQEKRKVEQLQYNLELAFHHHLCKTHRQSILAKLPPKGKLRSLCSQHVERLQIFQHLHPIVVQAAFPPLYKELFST
As to the kind of experiment: Time-resolved FRET (TR-FRET) RORγt coactivator assay. The assay is classed as biochemical. Conditions: GST-RORγ-LBD, biotinylated RIP140 peptide, coactivator displacement. Background: In TR-FRET formats the signal depends on donor and acceptor labels being close together.

The next assay addresses T2, human RORγt (Homo sapiens, UniProt P51449).
T2 sequence (P51449 1-497 isoform P51449-2): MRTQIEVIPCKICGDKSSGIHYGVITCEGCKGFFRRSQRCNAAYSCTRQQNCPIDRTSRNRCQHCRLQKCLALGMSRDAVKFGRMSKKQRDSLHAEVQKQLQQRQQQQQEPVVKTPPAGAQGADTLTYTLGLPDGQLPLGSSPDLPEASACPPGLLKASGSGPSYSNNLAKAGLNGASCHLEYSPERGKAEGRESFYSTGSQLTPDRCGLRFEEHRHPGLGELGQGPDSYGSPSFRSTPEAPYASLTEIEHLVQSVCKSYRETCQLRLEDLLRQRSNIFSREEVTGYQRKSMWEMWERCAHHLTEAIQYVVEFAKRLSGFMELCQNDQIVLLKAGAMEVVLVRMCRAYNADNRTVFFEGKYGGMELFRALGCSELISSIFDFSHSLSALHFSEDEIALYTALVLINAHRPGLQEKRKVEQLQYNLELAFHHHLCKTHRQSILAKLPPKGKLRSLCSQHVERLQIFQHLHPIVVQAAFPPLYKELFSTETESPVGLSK
As to the kind of experiment: IL-17 secretion from EL4 murine lymphoma overexpressing human RORγt. Conditions: IL-17 secretion inhibition, PMA and ionomycin stimulation, 24 h. Further details: expressed in transfected cells; host or cells: EL-4 murine lymphoma. The assay is classed as cell-based. As for the experimental part: Murine EL-4 lymphoma cell line overexpressing human RORγt was used in this functional assay to assess compound ability to inhibit IL-17 cytokine secretion.
EL-4 cells are maintained in a standard culture medium RPMI supplemented with 10% fetal calf serum, 1% sodium pyruvate, 1% essential amino acids and 1% antibiotics at 37° C. in a humidified atmosphere of 5% CO2 and 95% air. Culture medium was changed every 2 days. EL4 cells were transfected with a plasmid encoding hRORγt (sequence identical to published sequence NM 001001523). […] Briefly, 1 μg of DNA/1 million cells was served to transfect EL-4 cells. Cell/DNA suspension was transferred into certified cuvette and the electroporation of RORγt plasmid was carried out using appropriate Nucleofector® program.
Cells were seeded in 96 well plates at a density of 150000 cells/well then treated with compounds of this invention at indicated concentrations and incubated for 24 hours at 37° C. in a humidified atmosphere of 5% CO2 and 95% air. EL-4 cells were pretreated with test compounds (RORγ modulators) and stimulated with PMA (10 ng/mL) and ionomycin (1 μM final concentration) in the presence of test compound concentrations for additional 24 h at 37° C. in a humidified atmosphere of 5% CO2 and 95% air. Subsequently, supernatants were collected (after centrifugation at 300 g for 10 minutes) to determine the concentrations of IL-17 by HTRF (CisBio, France) or ELISA (R&D Systems Europe) according to the manufacturer's protocols.

Bounds are passed on as bounds.

What is called IC50 is the concentration that inhibits the measured activity by half. Low readings indicate greater potency, high ones weaker potency. Turning to `Cc1cc(Br)ccc1C(NC(=O)Cc1ccc2[nH]cc(CCC(=O)OC(C)(C)C)c2c1)c1ccccc1` (stereo not shown) [Cpd. 43, tert-butyl 3-[5-({[(4-bromo-2-methylphenyl)(phenyl)methyl]carbamoyl}methyl)-1H-indol-3-yl]propanoate], the IC50 in assay [1] fell in the range of 1 to 10 µM; against human RORγt, 10 to 30 µM. For the compound `CC(C)(C)OC(=O)CCc1c[nH]c2ccc(CC(=O)NC(c3ccccc3)c3ccc(C(F)(F)F)cc3N3CCCC3)cc12` (stereo not shown) [Cpd. 47, tert-butyl 3-{5-[({phenyl[2-(pyrrolidin-1-yl)-4-(trifluoromethyl)phenyl]methyl}carbamoyl)methyl]-1H-indol-3-yl}propanoate], the IC50 (in assay [1]; against human RORγt) was 1 to 10 µM each time. On to `CC(C)(C)OC(=O)CCc1c[nH]c2ccc(CC(=O)NC(c3ccccc3)c3ccc(Br)cc3N3CCCC3)cc12` (stereo not shown) [Cpd. 49, tert-butyl 3-{5-[({[4-bromo-2-(pyrrolidin-1-yl)phenyl](phenyl)methyl}carbamoyl)methyl]-1H-indol-3-yl}propanoate], for which the 50% inhibitory concentration (IC50) (in assay [1]; against human RORγt) was 1 to 10 µM throughout. As for `CC(C)(C)OC(=O)CCc1c[nH]c2ccc(CC(=O)NC(c3ccccc3)c3ccc(C#N)cc3N3CCCC3)cc12` (stereo not shown) [Cpd. 59, tert-butyl 3-{5-[({[4-cyano-2-(pyrrolidin-1-yl)phenyl](phenyl)methyl}carbamoyl)methyl]-1H-indol-3-yl}propanoate], the values for the IC50 (in assay [1]; against human RORγt) were less than 1 µM and 1 to 10 µM, respectively. For `COC(=O)Cc1c[nH]c2ccc(CC(=O)NC(c3ccccc3)c3ccc(C)cc3N3CCCC3)cc12` (stereo not shown) [Cpd. 64, methyl 2-{5-[({[4-methyl-2-(pyrrolidin-1-yl)phenyl](phenyl)methyl}carbamoyl)methyl]-1H-indol-3-yl}acetate], the IC50 (in assay [1]; at human RORγt) was less than 1 µM each time. Regarding `Cc1ccc(C(NC(=O)Cc2ccc3[nH]cc(CCC(=O)OC(C)(C)C)c3c2)c2ccccc2)c(N2CCCCC2)c1` (stereo not shown) [Cpd. 76, tert-butyl 3-{5-[({[4-methyl-2-(piperidin-1-yl)phenyl](phenyl)methyl}carbamoyl)methyl]-1H-indol-3-yl}propanoate], the IC50 in assay [1] was less than 1 µM; on human RORγt, 1 to 10 µM.

For the compound `CC(C)(C)OC(=O)CCc1c[nH]c2ccc(CC(=O)NC(c3ccccc3)c3ccccc3N3CCCC3)cc12` (stereo not shown) [Cpd. 78, tert-butyl 3-{5-[({phenyl[2-(pyrrolidin-1-yl)phenyl]methyl}carbamoyl)methyl]-1H-indol-3-yl}propanoate], the IC50 (in assay [1]; at human RORγt) was 1 to 10 µM each time. For the compound `COc1ccc(C(NC(=O)Cc2ccc3[nH]cc(CCC(=O)OC(C)(C)C)c3c2)c2ccccc2)c(C)c1` (stereo not shown) [Cpd. 82, tert-butyl 3-[5-({[(4-methoxy-2-methylphenyl)(phenyl)methyl]carbamoyl}methyl)-1H-indol-3-yl]propanoate], the IC50 in assay [1] is less than 1 µM; against human RORγt, 1 to 10 µM. For the compound `COC(=O)Cc1c[nH]c2ccc(CC(=O)NC(c3ccccc3)c3ccc(Cl)cc3N3CCCC3)cc12` (stereo not shown) [Cpd. 84, methyl 2-{5-[({[4-chloro-2-(pyrrolidin-1-yl)phenyl](phenyl)methyl}carbamoyl)methyl]-1H-indol-3-yl}acetate], the IC50 in assay [1] was less than 1 µM; at human RORγt, 1 to 10 µM.

In the case of `COC(=O)Cc1c[nH]c2ccc(CC(=O)NC(c3ccccc3)c3ccc(C)cc3N3CCCCC3)cc12` (stereo not shown) [Cpd. 86, methyl 2-{5-[({[4-methyl-2-(piperidin-1-yl)phenyl](phenyl)methyl}carbamoyl)methyl]-1H-indol-3-yl}acetate], the IC50 (in assay [1]; against human RORγt) was less than 1 µM throughout. Take `COC(=O)Cc1c[nH]c2ccc(CC(=O)NC(c3ccccc3)c3ccc(C(F)(F)F)cc3N3CCCC3)cc12` (stereo not shown) [Cpd. 88, methyl 2-{5-[({phenyl[2-(pyrrolidin-1-yl)-4-(trifluoromethyl)phenyl]methyl}carbamoyl)methyl]-1H-indol-3-yl}acetate]: the values for the half-inhibitory concentration (IC50) (in assay [1]; against human RORγt) were less than 1 µM and 1 to 10 µM, respectively. For the compound `CC(C)(C)OC(=O)CCc1c[nH]c2ccc(CC(=O)NC(c3ccccc3)c3ccc(Cl)cc3N3CCCC3)cc12` (stereo not shown) [Cpd. 90, tert-butyl 3-{5-[({[4-chloro-2-(pyrrolidin-1-yl)phenyl](phenyl)methyl}carbamoyl)methyl]-1H-indol-3-yl}propanoate], the IC50 in assay [1] is less than 1 µM; against human RORγt, 10 to 30 µM. The like results for `COC(=O)Cc1c[nH]c2ccc(CC(=O)NC(c3ccccc3)c3ccc(C)cc3N3CCOCC3)cc12` (stereo not shown) [Cpd. 96, methyl 2-{5-[({[4-methyl-2-(morpholin-4-yl)phenyl](phenyl)methyl}carbamoyl)methyl]-1H-indol-3-yl}acetate] were, in that order, less than 1 µM and 1 to 10 µM.

Regarding `COc1cc(C)ccc1C(NC(=O)Cc1ccc2[nH]cc(CCC(=O)OC(C)(C)C)c2c1)c1ccccc1` (stereo not shown) [Cpd. 98, tert-butyl 3-[5-({[(2-methoxy-4-methylphenyl)(phenyl)methyl]carbamoyl}methyl)-1H-indol-3-yl]propanoate], the values for the IC50 (in assay [1]; against human RORγt) were less than 1 µM and 1 to 10 µM, respectively. Turning to `COc1ccc(C(NC(=O)Cc2ccc3[nH]cc(CCC(=O)OC(C)(C)C)c3c2)c2ccccc2)c(N2CCCC2)c1` (stereo not shown) [Cpd. 108, tert-butyl 3-{5-[({[4-methoxy-2-(pyrrolidin-1-yl)phenyl](phenyl)methyl}carbamoyl)methyl]-1H-indol-3-yl}propanoate], the IC50 (in assay [1]; against human RORγt) was less than 1 µM in each case.

On to `COc1ccc(C(NC(=O)Cc2ccc3[nH]cc(CCC(=O)OC(C)(C)C)c3c2)c2ccccc2)c(N2CCCCC2)c1` (stereo not shown) [Cpd. 110, tert-butyl 3-{5-[({[4-methoxy-2-(piperidin-1-yl)phenyl](phenyl)methyl}carbamoyl)methyl]-1H-indol-3-yl}propanoate], for which the IC50 is less than 1 µM in assay [1] and 1 to 10 µM at human RORγt.

Turning to `CCNc1cc(C)ccc1C(NC(=O)Cc1ccc2[nH]cc(CCC(=O)OC(C)(C)C)c2c1)c1ccccc1` (stereo not shown) [Cpd. 119, tert-butyl 3-{5-[({[2-(ethylamino)-4-methylphenyl](phenyl)methyl}carbamoyl)methyl]-1H-indol-3-yl}propanoate], the IC50 in assay [1] is less than 1 µM; at human RORγt, 1 to 10 µM.

As to `Cc1ccc(C(NC(=O)Cc2ccc3[nH]cc(CCC(=O)OC(C)(C)C)c3c2)c2ccccc2)c(NC(C)C)c1` (stereo not shown) [Cpd. 125, tert-butyl 3-(5-{[({4-methyl-2-[(propan-2-yl)amino]phenyl}(phenyl)methyl)carbamoyl]methyl}-1H-indol-3-yl)propanoate], the figures for the IC50 (in assay [1]; against human RORγt) were less than 1 µM and 1 to 10 µM, respectively. As for `COc1ccc(C(NC(=O)Cc2ccc3[nH]cc(CCC(=O)OC(C)(C)C)c3c2)c2ccccc2)c(N2CCCCCC2)c1` (stereo not shown) [Cpd. 141, tert-butyl 3-{5-[({[2-(azepan-1-yl)-4-methoxyphenyl](phenyl)methyl}carbamoyl)methyl]-1H-indol-3-yl}propanoate], the values for the IC50 (in assay [1]; against human RORγt) were less than 1 µM and 1 to 10 µM, respectively.

For `CC(C)CC(NC(=O)Nc1ccc2[nH]cc(CCC(=O)OC(C)(C)C)c2c1)c1ccccc1N1CCCCC1` (stereo not shown) [compound 262, tert-butyl 3-{5-[({3-methyl-1-[2-(piperidin-1-yl)phenyl]butyl}carbamoyl)amino]-1H-indol-3-yl}propanoate], in assay [1], the IC50 is 1 to 10 µM. Still for that read-out and setting: the figure for `Cc1ccc(C(NC(=O)Cc2ccc3[nH]cc(CCC(=O)OC(C)(C)C)c3c2)c2ccccc2)c(N2CCN(Cc3ccccc3)CC2)c1` (stereo not shown) [compound 263, tert-butyl 3-{5-[({[2-(4-benzylpiperazin-1-yl)-4-methylphenyl](phenyl)methyl}carbamoyl)methyl]-1H-indol-3-yl}propanoate] is less than 1 µM.
